Tests used:
SARS-CoV-2 [1] = type: cell-based, SARS-CoV-2 (Seattle strain)
tubulin network = experiment: mRNA sequencing and IPA analysis of SARS-CoV-2-infected neurons; type: cell-based, human; conditions: neurons infected with virus for 24 hours, treated vs vehicle (DMSO)
Calu3 cells = experiment: RNAseq of infected Calu3 cells, DEG reversal z-score analysis; type: cell-based, human; conditions: overlapping genes with FDR<10%
SARS-CoV-2 [2] = type: cell-based

Row | Compound | SARS-CoV-2 levels determined by qPCR for Spike mRNA (SARS-CoV-2 [1]) | expression of tubulins in mRNAseq (IPA Coronavirus Replication Pathway) (tubulin network) | restoration of gene expression of infected cells to uninfected levels (log 2 fold change z-scores) (Calu3 cells) | viral RNA levels (qPCR, Spike RNA) (SARS-CoV-2 [2])
1 | O=[N+]([O-])c1ccc(Sc2nnc(COc3ccccc3)n2-c2ccccc2)nc1 [MIND4-17, 5-Nitro-2-{[5-(phenoxymethyl)-4-phenyl-4H-1,2,4-triazol-3-yl]thio}pyridine] | dramatic reduction in Spike transcripts | downregulated |  | 
2 | O=[N+]([O-])c1ccc(Sc2nnc(COc3ccccc3)n2-c2ccccc2)c2ncccc12 [MIND4] |  |  | significant restoration back to uninfected state | dramatic reduction in viral RNA levels

Reference: patent publication US20240293384A1, “METHODS AND COMPOSITIONS FOR TREATMENT OF COVID-19” (priority 2021, published 2024)
